Assay results from publication PMC3279408, “A Non-Mammalian Type Opsin 5 Functions Dually in the Photoreceptive and Non-Photoreceptive Organs of Birds” (PLoS ONE, 2012).

Molecular target: T1, cOpn5L2 (Gallus gallus, UniProt B3XZF6)
T1 construct: N-terminal peptide MEEQYISKLHPVVDY, C-terminal peptide IRLSPTAKVESQGAARH (antigens)
T1 sequence (B3XZF6 1-348): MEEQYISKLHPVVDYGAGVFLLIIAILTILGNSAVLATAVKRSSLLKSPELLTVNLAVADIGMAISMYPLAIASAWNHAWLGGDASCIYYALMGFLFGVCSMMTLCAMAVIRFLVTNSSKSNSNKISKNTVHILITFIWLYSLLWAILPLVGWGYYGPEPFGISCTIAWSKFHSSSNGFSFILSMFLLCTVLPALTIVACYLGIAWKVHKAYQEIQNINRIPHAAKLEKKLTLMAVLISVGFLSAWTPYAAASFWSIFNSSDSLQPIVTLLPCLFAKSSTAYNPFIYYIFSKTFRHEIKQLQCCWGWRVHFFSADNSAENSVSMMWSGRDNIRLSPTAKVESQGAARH
Assay: absorption spectra of purified pigment, HPLC of retinal oximes, GTPgammaS binding Gi activation assay
Settings: 5 uM retinal added to cell medium, pH 6.5, spectra at 0 C

| SMILES | absorption spectra of purified pigment, HPLC of retinal oximes, GTPgammaS bindin (chromophore of UV-absorbing form, UV light converts it to the active all-trans form) | absorption spectra of purified pigment, HPLC of retinal oximes, GTPgammaS bindin (agonist, Gi assay in dark at pH 7.0, 0 C, retinylidene chromophore) |
| --- | --- | --- |
| CC1=C(/C=C/C(C)=C/C=C\C(C)=C\C=O)C(C)(C)CCC1 [11-cis-retinal] | absorption spectrum and the light-dependent changes of cOpn5L2 reconstituted with 11-cis-retinal |  |
| CC1=C(/C=C/C(C)=C/C=C/C(C)=C/C=O)C(C)(C)CCC1 [all-trans-retinal] |  | all-trans-retinal most likely incorporates directly into cOpn5L2, which results in induction of basal constitutive activity |
